The values below come from US8148373B2, “Compounds” (AstraZeneca AB, priority 2008, dated 2012).

Where a name gives a salt, the structure may show the parent alone.

The target in assay [1] is T1, Adrenergic β2 (H292 cells) (Homo sapiens, UniProt P07550).
T1 construct: endogenous in cells; host or cells: H292 cells
The assay can be described thus: Assay for Adrenergic β2 Mediated cAMP Production (concentration response, AlphaScreen cAMP detection). The format is cell-based. The settings on record: for EC50: cAMP production, 60 minutes at room temperature, 300 μM rolipram, read-out: β2 pEC50 (converted); for β2 Intrinsic activity: fraction relative to the maximum activity determined for formoterol. The gist of the method: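 H292 cells plated overnight, pre-treated with rolipram (300 μM final) 10 min, then compound 60 min at room temperature in HBSS/10 mM HEPES pH7.4/5 mM glucose, 1% DMSO. Lysate cAMP read by AlphaScreen against a cAMP standard curve; 4-parameter fit gives pEC50 and intrinsic activity as fraction of formoterol maximum.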
On the technique in general: In Alpha technology, singlet oxygen from a donor bead excites a nearby acceptor bead.

Assay [2] concerns the target T2, human muscarinic acetylcholine M3 receptor (M3-ACh) (Homo sapiens, UniProt P20309).
T2 construct: expressed in transfected cells; host or cells: CHO-K1 (Chinese Hamster Ovary) cell membranes
Description: Muscarinic 3 Receptor Binding Assay ([3H]NMS competition, SPA). To be noted: [3H]NMS 0.1 nM, CHO-K1 cell membranes, 16 hours at room temperature; read-out: M3 pIC50 (converted). The gist of the method:
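Competition SPA binding of 0.1 nM [3H]NMS (quarter Kd) to membranes from CHO-K1 cells expressing human M3, in 20 mM HEPES pH 7.4, 5 mM MgCl2, 1% DMSO. Incubated 16 h at room temperature; non-specific binding with 1 µM atropine. pIC50 from 50% reduction of specific binding.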

T2 sequence (P20309 whole entry): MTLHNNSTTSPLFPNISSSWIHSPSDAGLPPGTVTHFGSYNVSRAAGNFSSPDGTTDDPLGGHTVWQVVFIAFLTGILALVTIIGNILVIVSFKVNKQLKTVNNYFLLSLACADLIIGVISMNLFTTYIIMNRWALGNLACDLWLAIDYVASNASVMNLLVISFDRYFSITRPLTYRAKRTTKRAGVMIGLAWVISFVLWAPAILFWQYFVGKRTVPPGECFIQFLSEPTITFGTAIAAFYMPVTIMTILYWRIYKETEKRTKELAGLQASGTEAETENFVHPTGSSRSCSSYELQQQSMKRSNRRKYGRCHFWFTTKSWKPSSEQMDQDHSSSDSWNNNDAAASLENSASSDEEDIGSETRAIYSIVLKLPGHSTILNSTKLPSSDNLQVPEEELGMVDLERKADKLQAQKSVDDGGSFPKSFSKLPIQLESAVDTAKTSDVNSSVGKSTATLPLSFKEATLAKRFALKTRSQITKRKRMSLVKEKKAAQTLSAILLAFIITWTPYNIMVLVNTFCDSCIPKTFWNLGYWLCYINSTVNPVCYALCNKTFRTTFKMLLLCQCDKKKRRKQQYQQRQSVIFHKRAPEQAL
T1 sequence (P07550 whole entry): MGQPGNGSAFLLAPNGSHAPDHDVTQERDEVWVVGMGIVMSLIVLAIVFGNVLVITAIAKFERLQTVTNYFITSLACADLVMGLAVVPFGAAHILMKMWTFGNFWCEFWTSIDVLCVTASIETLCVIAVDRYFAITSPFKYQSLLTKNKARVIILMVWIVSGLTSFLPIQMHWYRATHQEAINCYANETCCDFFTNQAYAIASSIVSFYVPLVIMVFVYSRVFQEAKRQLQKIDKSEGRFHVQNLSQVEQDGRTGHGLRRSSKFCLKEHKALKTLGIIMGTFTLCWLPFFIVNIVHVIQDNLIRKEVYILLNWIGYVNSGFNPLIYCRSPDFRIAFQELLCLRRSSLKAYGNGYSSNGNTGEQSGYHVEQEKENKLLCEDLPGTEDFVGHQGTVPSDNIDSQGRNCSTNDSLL

For `O=C(c1csc(C2CC2)n1)N1CCOC2(CCN(Cc3cc(F)cc(CCNC[C@H](O)c4ccc(O)c5[nH]c(=O)sc45)c3)CC2)C1` [Example 57, (R)-7-(2-(3-((4-(2-Cyclopropylthiazole-4-carbonyl)-1-oxa-4,9-diazaspiro[5.5]undecan-9-yl)methyl)-5-fluorophenethylamino)-1-hydroxyethyl)-4-hydroxybenzo[d]thiazol-2(3H)-one ditrifluoroacetate], in assay [1], the EC50 is 6.31 nM and the “β2 Intrinsic activity” value turned out to be 1.1. In assay [2], the IC50 was 0.794 nM.
`CCc1cc(C(=O)N2CCOC3(CCN(Cc4ccc(F)c(CCNC[C@H](O)c5ccc(O)c6[nH]c(=O)sc56)c4)CC3)C2)cs1` [Example 99, (R)-7-(2-(5-((4-(5-Ethylthiophene-3-carbonyl)-1-oxa-4,9-diazaspiro[5.5]undecan-9-yl)methyl)-2-fluorophenethylamino)-1-hydroxyethyl)-4-hydroxybenzo[d]thiazol-2(3H)-one ditrifluoroacetate]: in assay [1], the EC50 is 7.94 nM and the “β2 Intrinsic activity” value came to 0.8. The IC50 in assay [2] was 1.58 nM.
On to `Cc1nc(C(=O)N2CCOC3(CCN(Cc4ccc(CCNC[C@H](O)c5ccc(O)c6[nH]c(=O)ccc56)cc4)CC3)C2)cs1` [Example 17, (R)-8-Hydroxy-5-(1-hydroxy-2-(4-((4-(2-methylthiazole-4-carbonyl)-1-oxa-4,9-diazaspiro[5.5]undecan-9-yl)methyl)phenethylamino)ethyl)quinolin-2(1H)-one ditrifluoroacetate], for which, in assay [1], the EC50 is 50.1 nM and the “β2 Intrinsic activity” value is recorded as 0.5. The IC50 in assay [2] is 50.1 nM.
On to `CC(C)(C)c1nc(C(=O)N2CCOC3(CCN(Cc4cc(F)cc(CCNC[C@H](O)c5ccc(O)c6[nH]c(=O)sc56)c4)CC3)C2)cs1` [Example 50, (R)-7-(2-(3-((4-(2-tert-Butylthiazole-4-carbonyl)-1-oxa-4,9-diazaspiro[5.5]undecan-9-yl)methyl)-5-fluorophenethylamino)-1-hydroxyethyl)-4-hydroxybenzo[d]thiazol-2(3H)-one ditrifluoroacetate], for which, in assay [1], the EC50 is 7.94 nM and the “β2 Intrinsic activity” value is 0.9. The IC50 in assay [2] is 39.8 nM.
In the case of `CC(C)c1csc(C(=O)N2CCOC3(CCN(Cc4cccc(CCNC[C@H](O)c5ccc(O)c6[nH]c(=O)sc56)c4)CC3)C2)n1` [Example 66, (R)-4-Hydroxy-7-(1-hydroxy-2-(3-((4-(4-isopropylthiazole-2-carbonyl)-1-oxa-4,9-diazaspiro[5.5]undecan-9-yl)methyl)phenethylamino)ethyl)benzo[d]thiazol-2(3H)-one ditrifluoroacetate], in assay [1], the EC50 was 15.8 nM and the “β2 Intrinsic activity” value worked out at 0.9. For the same compound, the IC50 in assay [2] was 0.794 nM.
For the compound `O=C(c1csc(C(F)(F)F)n1)N1CCOC2(CCN(Cc3cccc(CCNC[C@H](O)c4ccc(O)c5[nH]c(=O)sc45)c3)CC2)C1` [Example 26, (R)-4-Hydroxy-7-(1-hydroxy-2-(3-((4-(2-(trifluoromethyl)thiazole-4-carbonyl)-1-oxa-4,9-diazaspiro[5.5]undecan-9-yl)methyl)phenethylamino)ethyl)benzo[d]thiazol-2(3H)-one ditrifluoroacetate], in assay [1], the EC50 was 12.6 nM and the “β2 Intrinsic activity” value is 0.8. For the same compound, in assay [2], the IC50 was 0.631 nM.
For `Cc1nc(C(=O)N2CCOC3(CCN(Cc4cc(F)cc(CCNC[C@H](O)c5ccc(O)c6[nH]c(=O)sc56)c4)CC3)C2)cs1` [Example 19, (R)-7-(2-(3-Fluoro-5-((4-(2-methylthiazole-4-carbonyl)-1-oxa-4,9-diazaspiro[5.5]undecan-9-yl)methyl)phenethylamino)-1-hydroxyethyl)-4-hydroxybenzo[d]thiazol-2(3H)-one ditrifluoroacetate], in assay [1], the EC50 is 3.16 nM and the “β2 Intrinsic activity” value amounted to 0.9. In assay [2], the IC50 is 1.58 nM.
Take `CC(C)c1nc(C(=O)N2CC(F)(F)OC3(CCN(Cc4cccc(CCNC[C@H](O)c5ccc(O)c6[nH]c(=O)ccc56)c4)CC3)C2)cs1` [Example 44, (R)-5-(2-(3-((2,2-Difluoro-4-(2-isopropylthiazole-4-carbonyl)-1-oxa-4,9-diazaspiro[5.5]undecan-9-yl)methyl)phenethylamino)-1-hydroxyethyl)-8-hydroxyquinolin-2(1H)-one ditrifluoroacetate]: in assay [1], the EC50 was 2.51 nM and the “β2 Intrinsic activity” value is 1. In addition, the IC50 in assay [2] is 3.16 nM.
For `CC(C)c1nc(C(=O)N2CCOC3(CCN(CCCCCC(C)(C)CCCNC[C@H](O)c4ccc(O)c5[nH]c(=O)sc45)CC3)C2)cs1` [Example 285, (R)-4-Hydroxy-7-(1-hydroxy-2-(9-(4-(2-isopropylthiazole-4-carbonyl)-1-oxa-4,9-diazaspiro[5.5]undecan-9-yl)-4,4-dimethylnonylamino)ethyl)benzo[d]thiazol-2(3H)-one formate], in that order: 15.8 nM, 1 and 3.98 nM.
For `CCCc1cc(C(=O)N2CCOC3(CCN(Cc4cccc(CCNC[C@H](O)c5ccc(O)c6[nH]c(=O)sc56)c4)CC3)C2)cs1` [Example 267, (R)-4-Hydroxy-7-(1-hydroxy-2-(3-((4-(5-propylthiophene-3-carbonyl)-1-oxa-4,9-diazaspiro[5.5]undecan-9-yl)methyl)phenethylamino)ethyl)benzo[d]thiazol-2(3H)-one ditrifluoroacetate] the same measures were 10 nM, 0.9 and 1.58 nM.
As for `CC(C)c1nc(C(=O)N2CCOC3(CCN(Cc4cccc(OCCNC[C@H](O)c5ccc(O)c6[nH]c(=O)sc56)c4)CC3)C2)cs1` [Example 64, (R)-4-Hydroxy-7-(1-hydroxy-2-(2-(3-((4-(2-isopropylthiazole-4-carbonyl)-1-oxa-4,9-diazaspiro[5.5]undecan-9-yl)methyl)phenoxy)ethylamino)ethyl)benzo[d]thiazol-2(3H)-one ditrifluoroacetate], in assay [1], the EC50 is 50.1 nM and the “β2 Intrinsic activity” value stood at 0.9. Further, the IC50 in assay [2] is 0.2 nM.
Turning to `CC(C)c1nc(C(=O)N2CC(F)(F)OC3(CCN(Cc4cc(CCNC[C@H](O)c5ccc(O)c6[nH]c(=O)ccc56)cs4)CC3)C2)cs1` [Example 51, (R)-5-(2-(2-(5-((2,2-Difluoro-4-(2-isopropylthiazole-4-carbonyl)-1-oxa-4,9-diazaspiro[5.5]undecan-9-yl)methyl)thiophen-3-yl)ethylamino)-1-hydroxyethyl)-8-hydroxyquinolin-2(1H)-one ditrifluoroacetate], in assay [1], the EC50 was 3.16 nM and the “β2 Intrinsic activity” value was 0.9. In assay [2], the IC50 was 15.8 nM.
As for `O=C(c1csc(C2CCC2)n1)N1CCOC2(CCN(Cc3cc(F)cc(CCNC[C@H](O)c4ccc(O)c5[nH]c(=O)sc45)c3)CC2)C1` [Example 58, (R)-7-(2-(3-((4-(2-Cyclobutylthiazole-4-carbonyl)-1-oxa-4,9-diazaspiro[5.5]undecan-9-yl)methyl)-5-fluorophenethylamino)-1-hydroxyethyl)-4-hydroxybenzo[d]thiazol-2(3H)-one ditrifluoroacetate], in assay [1], the EC50 was 10 nM and the “β2 Intrinsic activity” value stood at 0.9. Besides, in assay [2], the IC50 is 6.31 nM.
Take `CC(C)c1nc(C(=O)N2CCOC3(CCN(Cc4ccc(F)c(CCNC[C@H](O)c5ccc(O)c6[nH]c(=O)sc56)c4)CC3)C2)cs1` [Example 47, (R)-7-(2-(2-Fluoro-5-((4-(2-isopropylthiazole-4-carbonyl)-1-oxa-4,9-diazaspiro[5.5]undecan-9-yl)methyl)phenethylamino)-1-hydroxyethyl)-4-hydroxybenzo[d]thiazol-2(3H)-one ditrifluoroacetate]: in assay [1], the EC50 was 15.8 nM and the “β2 Intrinsic activity” value came out at 0.9. Besides, the IC50 in assay [2] was 0.501 nM.
Take `CC(C)c1csc(C(=O)N2CCOC3(CCN(Cc4cccc(CCNC[C@H](O)c5ccc(O)c6[nH]c(=O)sc56)c4F)CC3)C2)c1` [Example 74, (R)-7-(2-(2-Fluoro-3-((4-(4-isopropylthiophene-2-carbonyl)-1-oxa-4,9-diazaspiro[5.5]undecan-9-yl)methyl)phenethylamino)-1-hydroxyethyl)-4-hydroxybenzo[d]thiazol-2(3H)-one ditrifluoroacetate]: in assay [1], the EC50 was 12.6 nM and the “β2 Intrinsic activity” value was found to be 0.9. The IC50 in assay [2] was 20 nM.
Turning to `Cc1cc(C(=O)N2CCOC3(CCN(CCCCCCCCCNC[C@H](O)c4ccc(O)c5[nH]c(=O)sc45)CC3)C2)cs1` [Example 105, (R)-4-Hydroxy-7-(1-hydroxy-2-(9-(4-(5-methylthiophene-3-carbonyl)-1-oxa-4,9-diazaspiro[5.5]undecan-9-yl)nonylamino)ethyl)benzo[d]thiazol-2(3H)-one formate], in assay [1], the EC50 was 15.8 nM and the “β2 Intrinsic activity” value is on record as 0.8. The IC50 in assay [2] is 0.126 nM.
On to `Cc1nc2cc(C(=O)N3CCOC4(CCN(Cc5cc(CCNC[C@H](O)c6ccc(O)c7[nH]c(=O)sc67)cs5)CC4)C3)ccc2s1` [Example 49, (R)-4-Hydroxy-7-(1-hydroxy-2-(2-(5-((4-(2-methylbenzo[d]thiazole-5-carbonyl)-1-oxa-4,9-diazaspiro[5.5]undecan-9-yl)methyl)thiophen-3-yl)ethylamino)ethyl)benzo[d]thiazol-2(3H)-one ditrifluoroacetate], for which, in assay [1], the EC50 was 7.94 nM and the “β2 Intrinsic activity” value was determined as 0.9. Moreover, in assay [2], the IC50 is 39.8 nM.
